In US9255122B2, “Cholate and deoxycholate-based amphiphiles for membrane protein manipulation” (Wisconsin Alumni Research Foundation, priority 2013, dated 2016):

Assays:
[1] = system: T1, LHI-RC complex; experiment: Solubilization of LHI-RC complex from R. capsulatus intracytoplasmic membranes (pellet/supernatant absorbance spectra); parameters: species or system Rhodobacter capsulatus; conditions: for SY (%) Solubilization yield of LHI-RC complex from the membrane: 2×CMC for DPA-2, CAO, CAO-1, 10×CMC for other new agents, 50×CMC for DDM and LDAO, 32° C., 30 min
T1 construct: made in house; host or cells: Rhodobacter capsulatus U43[pUHTM86Bgl], intracytoplasmic membranes
Experimental: (§1) These two reagents were chosen as control agents for the assay. For the superassembly solubilization, the intracytoplasmic R. capsulatus membranes enriched in LHI-RC complex were treated with 10×CMC individual new agents except DPA-2; DPA-2 was tested at 2×CMC based on its high CMC value. On the other hand, conventional detergents (LDAO and DDM) were used at 50×CMC due to the small CMC value in terms of wt. %. The solubilized protein portion and insolubilized part containing cellular debris and insolubilized membranes were separated via ultracentrifugation and isolated as the supernatant and pellet, respectively. The absorption spectra of these two portions were taken to assess detergents efficacy on the protein solubilization and stabilization.
(§2) The solubilization and purification of the R. capsulatus superassembly were conducted according to the published protocol (Chae et al., ChemBioChem 2008, 9, 1706-1709). First, specialized photosynthetic membranes called intracytoplasmic membranes were obtained from an engineered strain of Rhodobacter (R.) capsulatus, U43[pUHTM86Bgl], lacking the light-harvesting complex II (LHII). The solubilization experiment began by thawing and homogenizing frozen aliquots of R. capsulatus membranes at room temperature. The solution was then incubated with mild agitation at 32° C. for 30 min. Subsequently, the solution was further incubated for 30 min after adding individual detergents (2×CMC for DPA-2, CAO and CAO-1, 10×CMC for DPA-1, […], DCAO and DCAO-2, 50×CMC for DDM and LDAO) into 1.0 mL solutions of R. capsulatus superassembly. The solution was then subjected to ultracentrifugation at 310,000 g at 4° C. for 30 min to remove membrane debris.
(§3) The spectra of solubilized supernatant and solubilized pellet were taken in a range from 650 nm to 950 nm after being homogenized. For the purification of the protein, detergent-solubilized samples were transferred into a new 1.7 mL microcentrifuge tube containing Ni-NTA resin (Qiagen, Inc.; Valencia, Calif.; pre-equilibriated and stored in an equal volume of buffer containing 10 mM Tris, pH 7.8, and 100 mM NaCl). Following one-hour incubation at 4° C. for protein binding, the resins were collected and washed twice with 0.5 mL of binding buffer (a pH 7.8 Tris solution containing DDM at 1×CMC). Purified protein solution were collected by eluting three times with 0.20 mL elution buffer solutions containing 1 M imidazole (otherwise, this buffer was identical to binding buffer; the pH of each solution was readjusted to pH=7.8) and diluted with 0.4 mL of the binding buffer to reach 1.0 mL solution. UV-Vis spectra of the superassembly purified in individual detergents were then taken to assess the stability of the protein.

[2] = system: T1, LHI-RC complex; experiment: Long-term stability of LHI-RC complexes, absorbance ratio A875/A680 over 20-day incubation at room temperature; parameters: species or system Rhodobacter capsulatus; conditions: for long-term stability of superassembly (A875/A680), in words: room temperature; for native conformation retained by detergent-purified proteins: after 20 day-incubation at room temperature
Experimental: The favorable properties of CAO and DCAO in terms of membrane protein stabilization prompted further evaluation of these reagents' ability to stabilize protein superassemblies as a function of time. DDM-purified samples were diluted with solutions containing CAO or LDAO. […] Protein stability was monitored over time at room temperature by measuring absorbance ratios (A875/A680) (absorption at 680 nm arises from the oxidation of bacteriochlorophyll dissociated from LHI upon denaturation). […] Of note, DCAO was not evaluated in this long-term stability of the superassembly due to its high tendency to form a hydrogel at this high concentration.
R. capsulatus superassembly was purified in DDM according to the protocol described above. The DDM-purified sample was then diluted to the solutions containing individual detergents (CAO, CAO-1, DCAO, DCAO-2, DDM and LDAO). The dilution makes DDM concentration reached far below its CMC and the final individual detergent concentration at CMC+0.04 wt % or CMC+1.0 wt %. The spectra of individual detergents-solubilized LHI-RC complexes were taken in a range of 650 nm to 950 nm at regular intervals over 20 days during the incubation at room temperature. Protein integrity in each sample was assessed via changes in absorbance ratio (A875/A680) with time.
Similar criteria and protocols were used to judge the ability of amphiphiles to maintain solubilized and purified superassembly for extended periods. In this case, UV Vis-nearIR spectra were recorded at regular intervals. The degradation of the material could be monitored with the A875/A680 absorbance ratio, which decreased with time and sample integrity as the dominant 875 nm absorption of intact LHI disappeared and a 680 nm band appeared, indicating the presence of unbound, oxidized cofactors.

[3] = Critical micelle concentration (CMC) estimated with hydrophobic fluorescent dye diphenylhexatriene (DPH); format: physicochemical
Description: The “Critical Micelle Concentration” (CMC) refers to the concentration of a detergent (e.g., an amphiphile as described herein) in an aqueous solution at which the detergent molecules self-assemble into micelles. Below the CMC, detergents are mostly monomeric; above the CMC, micelle concentration increases linearly with detergent concentration. The CMC is dependent upon many factors and is detergent-specific. The CMC of a detergent can be determined experimentally by measuring the solubilization of a water-insoluble dye or fluorophore while varying the concentration of detergent. A CMC may also be determined by measuring the diminution of the surface tension of an aqueous solution as a function of detergent concentration (CMCs determined by either method correlate with each other). The CMC is determined by extrapolating the plot of solubilization vs. concentration (or surface tension vs. concentration) in the two linear regions above and below the CMC. Where the two lines intersect is the CMC.
The Critical Micelle Concentrations (CMCs) of compounds of the invention can be determined by standard techniques known to those of skill in the art. For example, CMCs of CAO and DCAO can be determined by monitoring uptake of a fluorescent dye (e.g., a dye such as 1,6-diphenylhexatriene) with increasing detergent concentration, monitored by fluorescence spectroscopy.

[4] = system: T1, LHI-RC complex; experiment: Integrity of detergent-solubilized and Ni-NTA-purified LHI-RC complexes by UV-Vis absorption spectra; parameters: species or system Rhodobacter capsulatus; conditions: purified protein eluted at 1×CMC detergent
Description: The presence of various types of cofactors such as bacteriochlorophyll and carotenoids embedded in the complexes, thereby providing a well-featured UV-Vis absorption spectrum, facilitates the assessment of the protein integrity for a set of detergents via optical spectrophotometry. The native conformation of the protein is represented by a very strong peak at 875 nm in its absorption spectrum, while the intact RC but denatured LHI, or denatured LHI and RC, produce rather intense peaks at ˜800 nm and ˜760 nm, respectively.
as §1
For the purification, the detergent-solubilized protein samples were subjected to a metal affinity column chromatography and eluted with the elution buffer containing 1M imidazole and 1×CMC individual detergents. The UV-Visible spectra of the resulting protein samples were taken to investigate the integrity of detergent-purified LHI-RC complexes.
as §2, §3

[5] = Water solubility and hydrogel formation of amphiphiles; format: physicochemical
Experimental: The amphiphiles prepared, except LDAO and DCAO, are water-soluble at up to 10 wt. %. […] DCAO was initially soluble, at approximately 1.0 wt. %, but tends to form a hydrogel over time at concentrations of greater than about 0.3 wt. %. Critical micelle concentration (CMC) values were estimated by using a hydrophobic fluorescent dye, diphenyhexatriene (DPH) (see Laible et al., Biochemistry 2003, 42, 1718-1730).
The CMC values were determined for CAO-1 (˜7.2 mM; ˜0.38 wt. %) and DCAO-2 (˜1.1 mM; ˜0.056 wt. %), which are similar to those of their parent compounds, CAO and DCAO, respectively (see Table 2.1 above). […] All of these cholate and deoxycholate-based agents preserved the native conformation of the superassembly during protein solubilization and purification processes.

[6] = at CMC+0.04 wt. % and CMC+1.0 wt. %, 20 days
[7] = estimated with DPH, Example 2, Table 2.1

T1 sequence (P11847 whole entry): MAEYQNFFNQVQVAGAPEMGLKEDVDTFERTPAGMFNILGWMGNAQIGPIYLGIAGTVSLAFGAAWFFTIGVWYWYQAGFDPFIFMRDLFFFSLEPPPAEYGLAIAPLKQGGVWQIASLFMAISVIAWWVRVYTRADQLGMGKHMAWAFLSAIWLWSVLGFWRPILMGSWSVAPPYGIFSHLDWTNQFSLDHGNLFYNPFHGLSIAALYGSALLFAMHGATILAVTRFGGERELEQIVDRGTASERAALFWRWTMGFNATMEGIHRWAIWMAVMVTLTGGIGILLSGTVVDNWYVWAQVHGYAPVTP
T1 sequence (P19057 whole entry, further chain): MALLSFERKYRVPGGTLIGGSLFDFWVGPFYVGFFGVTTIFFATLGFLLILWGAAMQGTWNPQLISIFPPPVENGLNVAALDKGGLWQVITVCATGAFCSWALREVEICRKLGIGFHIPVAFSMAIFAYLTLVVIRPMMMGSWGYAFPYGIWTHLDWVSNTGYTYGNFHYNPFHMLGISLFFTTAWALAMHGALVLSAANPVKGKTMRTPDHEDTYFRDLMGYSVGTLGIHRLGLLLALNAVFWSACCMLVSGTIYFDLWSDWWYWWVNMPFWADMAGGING
T1 sequence (P19056 whole entry, further chain): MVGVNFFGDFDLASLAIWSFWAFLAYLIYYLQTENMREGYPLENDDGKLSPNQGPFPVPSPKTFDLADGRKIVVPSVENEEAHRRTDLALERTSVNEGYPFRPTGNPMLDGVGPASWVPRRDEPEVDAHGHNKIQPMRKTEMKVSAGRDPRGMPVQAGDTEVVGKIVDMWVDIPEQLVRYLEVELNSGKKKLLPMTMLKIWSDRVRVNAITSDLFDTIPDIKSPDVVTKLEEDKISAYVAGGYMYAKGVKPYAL
T1 sequence (P02948 whole entry, further chain): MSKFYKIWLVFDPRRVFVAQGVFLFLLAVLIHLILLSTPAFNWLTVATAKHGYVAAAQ
T1 sequence (P02950 whole entry, further chain): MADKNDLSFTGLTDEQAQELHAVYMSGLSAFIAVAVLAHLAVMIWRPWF

| Structure (SMILES) | SY (%) Solubilization yield of LHI-RC complex from the membrane [1] [%] | CMC [3, 7] [mM] | CMC (wt. %) [3, 7] [wt. %] | CMC ([3]; Example 3, Table 3-2) [mM] | CMC (%) ([3]; Example 3, Table 3-2) | native structure of LHI-RC complexes after solubilization and purification (in words) [4] | further results |
| --- | --- | --- | --- | --- | --- | --- | --- |
| CC(CCC(=O)N(C)CCC[N+](C)(C)[O-])C1CCC2C3C(O)CC4CC(O)CCC4(C)C3CC(O)C12C (stereo not drawn) [CAO-1] | ~20 | ~7.2 | ~0.36 |  |  |  | long-term stability of superassembly (A875/A680), in words [2, 6]: clearly superior to DDM |
| CC(CCC(=O)NCCC[N+](C)(C)[O-])C1CCC2C3C(O)CC4CC(O)CCC4(C)C3CC(O)C12C (stereo not drawn) [CAO] | ~30 | ~8.3 | ~0.42 | 7.1 | 0.36 | fully retained as effectively as DDM | long-term stability of superassembly (A875/A680), in words [2, 6]: clearly superior to DDM; long-term stability of superassembly (A875/A680), in words ([2]; detergent at CMC+0.04 wt. %): more stable than DDM-solubilized protein; long-term stability of superassembly (A875/A680), in words ([2]; detergent at CMC+1.0 wt. %): efficacy difference between CAO and DDM was more prominent |
| C[C@H](CCC(=O)NCCC[N+](C)(C)CCCS(=O)(=O)[O-])[C@H]1CC[C@H]2[C@@H]3[C@H](O)C[C@@H]4C[C@H](O)CC[C@]4(C)[C@H]3C[C@H](O)[C@]12C [CHAPS, 3-[(3-cholamidopropyl)-dimethylammonio]-1-propanesulfonate, reference compound] | ~50 | ~8.0 |  | 8 | 0.49 | without structural degradation | native conformation retained by detergent-purified proteins [2]: ~65% |
| C[C@H](CCC(=O)NCCC[N+](C)(C)CC(O)CS(=O)(=O)[O-])[C@H]1CC[C@H]2[C@@H]3[C@H](O)C[C@@H]4C[C@H](O)CC[C@]4(C)[C@H]3C[C@H](O)[C@]12C (stereo partly drawn) [CHAPSO, 3-[(3-cholamidopropyl)-dimethylammonio]-2-hydroxy-1-propanesulfonate, reference compound] | ~50 |  |  | 8 | 0.5 |  | native conformation retained by detergent-purified proteins [2]: ~65% |
| CC(CCC(=O)NCCC[N+](C)(C)[O-])C1CCC2C3CCC4CC(O)CCC4(C)C3CC(O)C12C (stereo not drawn) [DCAO] | ~70 | ~1.3 | ~0.064 | 1.0 | 0.049 | fully retained as effectively as DDM | hydrogel formation (in words) [5]: did not form a hydrogel; concentration at which a hydrogel tends to form over time ([5]; in water): greater than 0.3 wt. %; water solubility ([5]; water-soluble at up to the stated concentration): approximately 1.0 wt. %; long-term stability of superassembly (A875/A680), in words ([2]; detergent at CMC+0.04 wt. %): more stable than DDM-solubilized protein; CMC fold lower than that of CHAPS or CHAPSO [3]: approximately 8 fold |
| CCCCCCCCCCCCO[C@@H]1O[C@H](CO)[C@@H](O[C@H]2O[C@H](CO)[C@@H](O)[C@H](O)[C@H]2O)[C@H](O)[C@H]1O [DDM, n-dodecyl-β-D-maltoside, reference compound] | ~70 | ~0.17 | ~0.0087 |  |  |  |  |
| C[N+](C)([O-])CCCNC(=O)CC1(C2CCCC2)CCCCCC1 [DPA-1, 3-(2-(1-cyclopentylcycloheptyl)acetamido)-N,N-dimethylpropan-1-amine oxide] | ~100 | ~13 | ~0.24 |  |  | A similar trend was observed |  |
| C[N+](C)([O-])CCCNC(=O)CC(c1ccccc1)c1ccccc1 [DPA-2, reference compound] | ~15 | ~78 | ~2.5 |  |  |  |  |
| C[N+](C)([O-])CCCNC(=O)CC(C1CCCCC1)C1CCCCC1 [DPA-3, reference compound] | ~95 | ~4.9 | ~0.17 |  |  | protein degradation observed for DPA-3 was much less than that observed for DPA-1 |  |
| CCCCCCCCCCCC[N+](C)(C)[O-] [LDAO, lauryldimethylamine oxide, reference compound] | ~100 | ~1.0 | ~0.023 |  |  | native protein conformation mostly destroyed | water solubility (in words) [5]: insoluble in water; extraction/solubilization of LHI-RC complexes (in words) [1]: extracted the complexes almost quantitatively |
